In patent publication US11180462B2, “Microbiocidal oxadiazole derivatives” (SYNGENTA PARTICIPATIONS AG, priority 2015, dated 2021):

Key:
[1] = system: Puccinia recondita f. Sp. Tritici; experiment: Fungicidal activity against Puccinia recondita f. sp. tritici / wheat / leaf disc preventative (brown rust); type: in vivo; conditions: foliar, 200 ppm in the applied formulation, wheat leaf segments, preventative, compared to untreated control leaf disks, read-out: disease control
Procedure: Leaf disks or leaf segments of various plant species are cut from plants grown in a greenhouse. The cut leaf disks or segments are placed in multiwell plates (24-well format) onto water agar. The leaf disks are sprayed with a test solution before (preventative) or after (curative) inoculation. Compounds to be tested are prepared as DMSO solutions (max. 10 mg/ml) which are diluted to the appropriate concentration with 0.025% Tween20 just before spraying. The inoculated leaf disks or segments are incubated under defined conditions (temperature, relative humidity, light, etc.) according to the respective test system. A single evaluation of disease level is carried out 3 to 14 days after inoculation, depending on the pathosystem. Percent disease control relative to the untreated check leaf disks or segments is then calculated.
Fungicidal Activity Against Puccinia recondita f. Sp. Tritici/Wheat/Leaf Disc Preventative (Brown Rust)
Wheat leaf segments cv. Kanzler were placed on agar in multiwell plates (24-well format) and sprayed with the formulated test compound diluted in water. The leaf disks were inoculated with a spore suspension of the fungus 1 day after application. The inoculated leaf segments were incubated at 19° C. and 75% relative humidity (rh) under a light regime of 12 hours light/12 hours darkness in a climate cabinet and the activity of a compound was assessed as percent disease control compared to untreated when an appropriate level of disease damage appears in untreated check leaf segments (7 to 9 days after application).
The following compounds at 200 ppm in the applied formulation give at least 80% disease control in this test when compared to untreated control leaf disks under the same conditions, which show extensive disease development.

[2] = system: Glomerella lagenarium (Colletotrichum lagenarium); experiment: Fungicidal activity against Glomerella lagenarium (Colletotrichum lagenarium) liquid culture / cucumber / preventative (anthracnose); type: cell-based; conditions: Colletotrichum orbiculare; 20 ppm in the applied formulation; liquid culture (PDB), growth inhibition measured photometrically after 3 to 4 days; compared to untreated control; read-out: disease control
How it was run: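 Photometric read-out of fungal growth after 2–7 days, expressed as percent antifungal activity versus untreated check. Cryo-stored conidia in PDB; compound at 20 ppm; dark, 24 °C, 96% RH.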

Row | Structure (SMILES) | pest or weed control at 200 ppm [1] | inhibition of growth at 20 ppm [2]
1 | CON(Cc1ccc(-c2noc(C(F)(F)F)n2)cc1)C(=O)C1C(C=C(Cl)Cl)C1(C)C (centres unmarked) [Compound 1.62, 3-(2,2-dichlorovinyl)-N-methoxy-2,2-dimethyl-N-[[4-[5-(trifluoromethyl)-1,2,4-oxadiazol-3-yl]phenyl]methyl]-cyclopropane-carboxamide] | ≥ 80% | 
2 | CON(Cc1ccc(-c2noc(C(F)(F)F)n2)cc1)C(=O)c1cccc2nnsc12 [Compound 1.67, N-methoxy-N-[[4-[5-(trifluoromethyl)-1,2,4-oxadiazol-3-yl]phenyl]methyl]-1,2,3-benzothiadiazole-7-carboxamide] | ≥ 80% | ≥ 80%
3 | C#CCOC(C(=O)N(Cc1ccc(-c2noc(C(F)(F)F)n2)cc1)OC)c1ccc(Cl)cc1 (centres unmarked) [Compound 1.69, 2-(4-chlorophenyl)-N-methoxy-2-prop-2-ynoxy-N-[[4-[5-(trifluoromethyl)-1,2,4-oxadiazol-3-yl]phenyl]methyl]-acetamide] | ≥ 80% | ≥ 80%
4 | Cc1cccc(C)c1C(=O)N(Cc1ccc(-c2noc(C(F)(F)F)n2)cc1)C1CC1 [Compound 1.105, N-cyclopropyl-2,6-dimethyl-N-[[4-[5-(trifluoromethyl)-1,2,4-oxadiazol-3-yl]phenyl]methyl]-benzamide] | ≥ 80% | ≥ 80%
5 | CC1(C(=O)N(Cc2ccc(-c3noc(C(F)(F)F)n3)cc2)C2CC2)CC1(Cl)Cl (centres unmarked) [Compound 1.107, 2,2-dichloro-N-cyclopropyl-1-methyl-N-[[4-[5-(trifluoromethyl)-1,2,4-oxadiazol-3-yl]phenyl]methyl]-cyclopropane-carboxamide] | ≥ 80% | ≥ 80%
6 | COc1ccccc1CC(=O)N(Cc1ccc(-c2noc(C(F)(F)F)n2)cc1)C1CC1 [Compound 1.113, N-cyclopropyl-2-(2-methoxyphenyl)-N-[[4-[5-(trifluoromethyl)-1,2,4-oxadiazol-3-yl]phenyl]methyl]-acetamide] | ≥ 80% | ≥ 80%
7 | O=C(c1ccccc1Cl)N(Cc1ccc(-c2noc(C(F)(F)F)n2)cc1)C1CC1 [Compound 1.120, 2-chloro-N-cyclopropyl-N-[[4-[5-(trifluoromethyl)-1,2,4-oxadiazol-3-yl]phenyl]methyl]-benzamide] | ≥ 80% | ≥ 80%
8 | O=C(Cc1ccc(C(F)(F)F)cc1)N(Cc1ccc(-c2noc(C(F)(F)F)n2)cc1)C1CC1 [Compound 1.140, N-cyclopropyl-N-[[4-[5-(trifluoromethyl)-1,2,4-oxadiazol-3-yl]phenyl]methyl]-2-[4-(trifluoromethyl)-phenyl]acetamide] | ≥ 80% | 
9 | C#CCOC(C(=O)N(Cc1ccc(-c2noc(C(F)(F)F)n2)cc1)C1CC1)c1ccc(Cl)cc1 (centres unmarked) [Compound 1.141, 2-(4-chlorophenyl)-N-cyclopropyl-2-prop-2-ynoxy-N-[[4-[5-(trifluoromethyl)-1,2,4-oxadiazol-3-yl]phenyl]methyl]-acetamide] | ≥ 80% | 
10 | COc1ccc(C2(C(=O)N(Cc3ccc(-c4noc(C(F)(F)F)n4)cc3)C3CC3)CC2)cc1 [Compound 1.143, N-cyclopropyl-1-(4-methoxyphenyl)-N-[[4-[5-(trifluoromethyl)-1,2,4-oxadiazol-3-yl]phenyl]methyl]-cyclopropane-carboxamide] | ≥ 80% | 
11 | C#CCN(Cc1ccc(-c2noc(C(F)(F)F)n2)cc1)C(=O)Cc1ccccc1 [Compound 1.186, 2-phenyl-N-prop-2-ynyl-N-[[4-[5-(trifluoromethyl)-1,2,4-oxadiazol-3-yl]phenyl]methyl]-acetamide] | ≥ 80% | 
12 | C#CCOC(=O)NC(C(=O)N(CC#C)Cc1ccc(-c2noc(C(F)(F)F)n2)cc1)C(C)C (centres unmarked) [Compound 1.198, prop-2-ynyl N-[2-methyl-1-[prop-2-ynyl-[[4-[5-(trifluoromethyl)-1,2,4-oxadiazol-3-yl]phenyl]methyl]-carbamoyl]propyl]-carbamate] | ≥ 80% | 
13 | O=C(Cc1ccc(Cl)cc1)N(Cc1ccc(-c2noc(C(F)(F)F)n2)cc1)CC1CC1 [Compound 1.234, 2-(4-chlorophenyl)-N-(cyclopropylmethyl)-N-[[4-[5-(trifluoromethyl)-1,2,4-oxadiazol-3-yl]phenyl]methyl]-acetamide] | ≥ 80% | 
14 | COCCN(Cc1ccc(-c2noc(C(F)(F)F)n2)cc1)C(=O)C1(NC=O)CC1 [Compound 1.354, 1-formamido-N-(2-methoxyethyl)-N-[[4-[5-(trifluoromethyl)-1,2,4-oxadiazol-3-yl]phenyl]methyl]-cyclopropane-carboxamide] | ≥ 80% | 
15 | O=CNC1(C(=O)N(Cc2ccc(-c3noc(C(F)(F)F)n3)cc2)CC2CCCO2)CC1 (centres unmarked) [Compound 1.441, 1-formamido-N-(tetrahydrofuran-2-ylmethyl)-N-[[4-[5-(trifluoromethyl)-1,2,4-oxadiazol-3-yl]phenyl]methyl]-cyclopropane-carboxamide] | ≥ 80% | 
16 | CC(=O)NCC(=O)N(Cc1ccc(-c2noc(C(F)(F)F)n2)cc1)OCc1ccc(Cl)cc1 [Compound 1.552, 2-ace tamido-N-[(4-chlorophenyl)-methoxy]-N-[[4-[5-(trifluoromethyl)-1,2,4-oxadiazol-3-yl]phenyl]methyl]-acetamide] | ≥ 80% | 
17 | CCCCON(Cc1ccc(-c2noc(C(F)(F)F)n2)cc1)C(=O)C1CC1 [Compound 1.601, N-butoxy-N-[[4-[5-(trifluoromethyl)-1,2,4-oxadiazol-3-yl]phenyl]methyl]-cyclopropane-carboxamide] |  | ≥ 80%
18 | CCCCON(Cc1ccc(-c2noc(C(F)(F)F)n2)cc1)C(=O)C(C)C [Compound 1.633, N-butoxy-2-methyl-N-[[4-[5-(trifluoromethyl)-1,2,4-oxadiazol-3-yl]phenyl]methyl]-propanamide] |  | ≥ 80%
19 | CCCCON(Cc1ccc(-c2noc(C(F)(F)F)n2)cc1)C(=O)C1CCC1 [Compound 1.638, N-butoxy-N-[[4-[5-(trifluoromethyl)-1,2,4-oxadiazol-3-yl]phenyl]methyl]-cyclobutane-carboxamide] |  | ≥ 80%
20 | CCCCON(Cc1ccc(-c2noc(C(F)(F)F)n2)cc1)C(=O)CC1CC1 [Compound 1.650, N-butoxy-2-cydopropyl-N-[[4-[5-(trifluoromethyl)-1,2,4-oxadiazol-3-yl]phenyl]methyl]-acetamide] |  | ≥ 80%
21 | CON(Cc1ccc(-c2noc(C(F)(F)F)n2)cc1)C(=O)C(F)(F)F [Compound 1.780, 2,2,2-trifluoro-N-methoxy-N-[[4-[5-(trifluoromethyl)-1,2,4-oxadiazol-3-yl]phenyl]methyl]-acetamide] |  | ≥ 80%
22 | CON(Cc1ccc(-c2noc(C(F)(F)F)n2)cc1)C(=O)n1ccnc1 [Compound 1.811, N-methoxy-N-[[4-[5-(trifluoromethyl)-1,2,4-oxadiazol-3-yl]phenyl]methyl]-imidazole-1-carboxamide] |  | ≥ 80%
23 | CON(Cc1ccc(-c2noc(C(F)(F)F)n2)cc1)C(=O)OCC(C)C [Compound 2.8, isobutyl N-methoxy-N-[[4-[5-(trifluoromethyl)-1,2,4-oxadiazol-3-yl]phenyl]methyl]-carbamate] |  | ≥ 80%
24 | CCCCCOC(=O)N(Cc1ccc(-c2noc(C(F)(F)F)n2)cc1)OC [Compound 2.9, pentyl N-methoxy-N-[[4-[5-(trifluoromethyl)-1,2,4-oxadiazol-3-yl]phenyl]methyl]-carbamate] |  | ≥ 80%
25 | CON(Cc1ccc(-c2noc(C(F)(F)F)n2)cc1)C(=O)OCc1ccccc1 [Compound 2.10, benzyl N-methoxy-N-[[4-[5-(trifluoromethyl)-1,2,4-oxadiazol-3-yl]phenyl]methyl]-carbamate] |  | ≥ 80%
26 | CCCCOC(=O)N(Cc1ccc(-c2noc(C(F)(F)F)n2)cc1)OC [Compound 2.12, butyl N-methoxy-N-[[4-[5-(trifluoromethyl)-1,2,4-oxadiazol-3-yl]phenyl]methyl]-carbamate] |  | ≥ 80%
27 | CON(Cc1ccc(-c2noc(C(F)(F)F)n2)cc1)C(=O)OCCCCCl [Compound 2.13, 4-chlorobutyl N-methoxy-N-[[4-[5-(trifluoromethyl)-1,2,4-oxadiazol-3-yl]phenyl]methyl]-carbamate] |  | ≥ 80%
28 | CON(Cc1ccc(-c2noc(C(F)(F)F)n2)cc1)C(=O)OCC(C)(C)C [Compound 2.18, 2,2-dimethylpropyl N-methoxy-N-[[4-[5-(trifluoromethyl)-1,2,4-oxadiazol-3-yl]phenyl]methyl]-carbamate] |  | ≥ 80%
29 | CON(Cc1ccc(-c2noc(C(F)(F)F)n2)cc1)C(=O)OC(Cl)C(C)C (centres unmarked) [Compound 2.19, (1-chloro-2-methyl-propyl) N-methoxy-N-[[4-[5-(trifluoromethyl)-1,2,4-oxadiazol-3-yl]phenyl]methyl]-carbamate] |  | ≥ 80%
